Measured values reported in BindingDB's records for doi:10.7270/Q2TQ5ZZB (Burnham Center For Chemical Genomics, 2010).
Counter-ions that a name gives are not always drawn.

Target: G-protein coupled receptor 35 (Homo sapiens, UniProt Q9HC97)
Assay: inhibition of zaprinast-stimulated GPR35 beta-arrestin translocation – imaging, U2OS, beta-arrestin-GFP, zaprinast agonist, primary screen (AID 2058)

G-protein coupled receptor 35, sequence (Q9HC97 whole entry): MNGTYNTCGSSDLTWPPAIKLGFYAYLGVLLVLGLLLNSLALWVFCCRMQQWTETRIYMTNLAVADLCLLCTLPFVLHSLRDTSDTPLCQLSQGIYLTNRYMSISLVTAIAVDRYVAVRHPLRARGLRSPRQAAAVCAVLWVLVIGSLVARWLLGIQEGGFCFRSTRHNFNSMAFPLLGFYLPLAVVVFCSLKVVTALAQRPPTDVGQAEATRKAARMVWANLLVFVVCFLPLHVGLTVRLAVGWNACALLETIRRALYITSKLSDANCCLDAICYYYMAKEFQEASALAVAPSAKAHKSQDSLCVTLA

Row | IC50 [µM] | Compound
1 | 0.991 | CN1CCC2=C(C#N)C(=N)C(C#N)(C#N)C(c3ccsc3)C2C1 (stereo not given) [6-azanyl-2-methyl-8-thiophen-3-yl-1,3,8,8a-tetrahydroisoquinoline-5,7,7-tricarbonitrile]
2 | 3.08 | Oc1ccc(CN=Nc2nc(-c3ccccc3F)nc3ccccc23)c(O)c1 [MLS000778210]
3 | 11 | CC1(C)Cc2c(ccc3ccccc23)C(CC(=O)N2CCCCC2)=N1 [(2Z)-2-(2,2-dimethyl-1,3-dihydrobenzo[f]isoquinolin-4-ylidene)-1-(1-piperidinyl)ethanone;hydrochloride]
4 | 2.74 | COc1cccc(C2C3CN(C)CCC3=C(C#N)C(=N)C2(C#N)C#N)c1OC (stereo not given) [6-Amino-8-(2,3-dimethoxy-phenyl)-2-methyl-2,3,8,8a-tetrahydro-1H-isoquinoline-5,7,7-tricarbonitrile]
5 | 12 | CN1CCC2=C(C#N)C(=N)C(C#N)(C#N)C(c3cccc(Cl)c3Cl)C2C1 (stereo not given) [6-azanyl-8-[2,3-bis(chloranyl)phenyl]-2-methyl-1,3,8,8a-tetrahydroisoquinoline-5,7,7-tricarbonitrile]
